# From PubChem BioAssay (NCI)
#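 Cells were grown in 96-well plates and exposed to each compound for 48 hours at five concentrations; endpoints were interpolated linearly between bracketing concentrations, or set to the highest concentration if not reached. Abbreviation: GI50, concentration required for 50% inhibition of growth. TGI denotes the concentration required for complete inhibition of growth.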
# Legend:
# Assay in all cases: NCI anticancer screen, dose series, 48 h
# HCT-116 colon = test system: HCT-116 colon
# COLO 205 colon = test system: COLO 205 colon
# SK-MEL-2 melanoma = test system: SK-MEL-2 melanoma
# HT29 colon = test system: HT29 colon
# MCF7 breast = test system: MCF7 breast
# SR leukemia = test system: SR leukemia
# OVCAR-8 ovarian = test system: OVCAR-8 ovarian
# UACC-257 melanoma = test system: UACC-257 melanoma
# UACC-62 melanoma = test system: UACC-62 melanoma
# U251 CNS = test system: U251 CNS
# SK-MEL-28 melanoma = test system: SK-MEL-28 melanoma
# MDA-MB-231 breast = test system: MDA-MB-231 breast
# SK-OV-3 ovarian = test system: SK-OV-3 ovarian
# PC-3 prostate = test system: PC-3 prostate
# M14 melanoma = test system: M14 melanoma
# K-562 leukemia = test system: K-562 leukemia
# CAKI-1 renal = test system: CAKI-1 renal
# NCI-H522 lung = test system: NCI-H522 lung
# SF-539 CNS = test system: SF-539 CNS
# SK-MEL-5 melanoma = test system: SK-MEL-5 melanoma
# LOX IMVI melanoma = test system: LOX IMVI melanoma
# NCI-H226 lung = test system: NCI-H226 lung
# SF-295 CNS = test system: SF-295 CNS
# SNB-75 CNS = test system: SNB-75 CNS
# SF-268 CNS = test system: SF-268 CNS
# A549 NSCLC = test system: A549 NSCLC
# OVCAR-3 ovarian = test system: OVCAR-3 ovarian
# HL-60(TB) leukemia = test system: HL-60(TB) leukemia
smiles,measurement,setting,value
Cn1cc(-c2cc(N)n3nc(-c4cn(C)c5ccc(F)cc45)cc3n2)c2cc(F)ccc21,GI50,HCT-116 colon,1.85 µM
same,TGI,HCT-116 colon,3.57 µM
same,GI50,COLO 205 colon,1.75 µM
same,TGI,COLO 205 colon,3.18 µM
same,GI50,SK-MEL-2 melanoma,2.11 µM
same,TGI,SK-MEL-2 melanoma,5.97 µM
same,GI50,HT29 colon,1.64 µM
same,TGI,HT29 colon,3.2 µM
same,GI50,MCF7 breast,1.67 µM
same,TGI,MCF7 breast,3.19 µM
same,GI50,SR leukemia,1.97 µM
same,TGI,SR leukemia,8.4 µM
same,GI50,OVCAR-8 ovarian,1.82 µM
same,TGI,OVCAR-8 ovarian,3.53 µM
same,GI50,UACC-257 melanoma,1.78 µM
same,TGI,UACC-257 melanoma,3.58 µM
same,GI50,UACC-62 melanoma,1.71 µM
same,TGI,UACC-62 melanoma,3.28 µM
same,GI50,U251 CNS,1.68 µM
same,TGI,U251 CNS,3.17 µM
same,GI50,SK-MEL-28 melanoma,1.79 µM
same,TGI,SK-MEL-28 melanoma,3.23 µM
same,GI50,MDA-MB-231 breast,2 µM
same,TGI,MDA-MB-231 breast,3.79 µM
same,GI50,SK-OV-3 ovarian,20.9 µM
same,TGI,SK-OV-3 ovarian,40.5 µM
same,GI50,PC-3 prostate,1.89 µM
same,TGI,PC-3 prostate,3.84 µM
same,GI50,M14 melanoma,1.68 µM
same,TGI,M14 melanoma,3.35 µM
same,GI50,K-562 leukemia,2.79 µM
same,TGI,K-562 leukemia,10 µM
same,GI50,CAKI-1 renal,2.04 µM
same,TGI,CAKI-1 renal,4.42 µM
same,GI50,NCI-H522 lung,1.62 µM
same,TGI,NCI-H522 lung,3.28 µM
same,GI50,SF-539 CNS,1.9 µM
same,TGI,SF-539 CNS,3.45 µM
same,GI50,SK-MEL-5 melanoma,1.71 µM
same,TGI,SK-MEL-5 melanoma,3.17 µM
same,GI50,LOX IMVI melanoma,2.57 µM
same,TGI,LOX IMVI melanoma,4.22 µM
same,GI50,NCI-H226 lung,6.5 µM
same,TGI,NCI-H226 lung,27.8 µM
same,GI50,SF-295 CNS,1.94 µM
same,TGI,SF-295 CNS,3.73 µM
same,GI50,SNB-75 CNS,2.29 µM
same,TGI,SNB-75 CNS,12.4 µM
same,GI50,SF-268 CNS,1.89 µM
same,TGI,SF-268 CNS,3.95 µM
same,GI50,A549 NSCLC,1.56 µM
same,TGI,A549 NSCLC,3.01 µM
same,GI50,OVCAR-3 ovarian,1.74 µM
same,TGI,OVCAR-3 ovarian,3.16 µM
same,GI50,HL-60(TB) leukemia,1.83 µM
same,TGI,HL-60(TB) leukemia,5.04 µM
